{"source": "ChEMBL document CHEMBL3228010", "about": "“Potential antitumor agents. 29. Quantitative structure-activity relationships for the antileukemic bisquaternary ammonium heterocycles” (J Med Chem, 1979)", "key": {"[1]": {"assay": "Displacement of ethidium from poly[d(G-C)]-poly[d(G-C)] DNA (unknown origin) by fluorimetric method"}, "[2]": {"assay": "Lipophilic-hydrophilic balance, Rm of the compound by partition chromatography", "assay_type": "physicochemical"}, "L1210 [3]": {"test_system": "L1210", "assay": "Antitumor activity against mouse L1210 cells […] in ip dosed C3H X DBA2 F1 hybrid mouse on day 0 and dosed at LD10 level once daily on days 1 to 5 assessed as increase in life span relative to control", "assay_type": "functional"}, "L1210 [4]": {"test_system": "L1210", "assay": "Antitumor activity against mouse L1210 cells […] in ip dosed C3H X DBA2 F1 hybrid mouse on day 0 and dosed once daily on days 1 to 5 assessed as increase in life span relative to control", "assay_type": "functional"}, "Mus musculus": {"test_system": "Mus musculus", "assay": "Toxicity in ip dosed C3H X DBA2 F1 hybrid mouse […] with mouse L1210 cells on day 0 and dosed once daily on days 1 to 5 measured after 50 days", "assay_type": "organism-based", "conditions": "in vivo, 1200 h"}, "[5]": {"assay": "Displacement of ethidium from poly[d(A-T)]-poly[d(A-T)] DNA by fluorimetric method"}, "Bos taurus": {"organism": "Bos taurus", "assay": "Displacement of ethidium from calf thymus DNA by fluorimetric method"}}, "data": [{"smiles": "C[n+]1ccc(Nc2ccc(C(=O)Nc3ccc(Nc4cc[n+](C)c5ccc(N)cc45)cc3)c(N)c2)cc1.[Br-].[Br-]", "values": [{"measurement": "C50", "setting": "[1]", "result": 0.91, "unit": "µM"}, {"measurement": "Rm", "setting": "[2]", "result": -0.3}, {"measurement": "log(ILSmax)", "setting": "L1210 [3]", "result": 2.43}, {"measurement": "D40", "setting": "L1210 [4]", "result": 1, "unit": "mg/kg"}, {"measurement": "LD10", "setting": "Mus musculus", "result": 20, "unit": "mg/kg"}, {"measurement": "C50", "setting": "[5]", "result": 0.15, "unit": "µM"}, {"measurement": "C50", "setting": "Bos taurus", "result": 0.6, "unit": "µM"}]}, {"smiles": "C[n+]1cccc(NC(=O)c2ccc(NC(=O)c3ccc(C(=O)Nc4ccc(C(=O)Nc5ccc[n+](C)c5)cc4Cl)cc3)c(Cl)c2)c1.Cc1ccc(S(=O)(=O)[O-])cc1.Cc1ccc(S(=O)(=O)[O-])cc1", "values": [{"measurement": "C50", "setting": "[1]", "result": 1.5, "unit": "µM"}, {"measurement": "Rm", "setting": "[2]", "result": 0.36}, {"measurement": "log(ILSmax)", "setting": "L1210 [3]", "result": 1.6}, {"measurement": "D40", "setting": "L1210 [4]", "result": 50, "unit": "mg/kg"}, {"measurement": "LD10", "setting": "Mus musculus", "result": 50, "unit": "mg/kg"}, {"measurement": "C50", "setting": "[5]", "result": 1.3, "unit": "µM"}, {"measurement": "C50", "setting": "Bos taurus", "result": 1.3, "unit": "µM"}]}, {"smiles": "C[n+]1cc(-c2ccc(NC(=O)c3ccc(Nc4cc[n+](C)c5ccc(N)cc45)cc3N)cc2)c(N)nc1N.Cc1ccc(S(=O)(=O)[O-])cc1.Cc1ccc(S(=O)(=O)[O-])cc1", "values": [{"measurement": "C50", "setting": "[1]", "result": 1.08, "unit": "µM"}, {"measurement": "Rm", "setting": "[2]", "result": -0.25}, {"measurement": "log(ILSmax)", "setting": "L1210 [3]", "result": 2.41}, {"measurement": "D40", "setting": "L1210 [4]", "result": 4.4, "unit": "mg/kg"}, {"measurement": "LD10", "setting": "Mus musculus", "result": 75, "unit": "mg/kg"}, {"measurement": "C50", "setting": "[5]", "result": 0.11, "unit": "µM"}, {"measurement": "C50", "setting": "Bos taurus", "result": 0.62, "unit": "µM"}]}, {"smiles": "C[n+]1cc(-c2ccc(NC(=O)c3ccc(Nc4cc[n+](C)c5ccccc45)cc3)cc2)c(N)nc1N.Cc1ccc(S(=O)(=O)[O-])cc1.Cc1ccc(S(=O)(=O)[O-])cc1", "values": [{"measurement": "C50", "setting": "[1]", "result": 2.73, "unit": "µM"}, {"measurement": "Rm", "setting": "[2]", "result": -0.01}, {"measurement": "log(ILSmax)", "setting": "L1210 [3]", "result": 2.27}, {"measurement": "D40", "setting": "L1210 [4]", "result": 3.5, "unit": "mg/kg"}, {"measurement": "LD10", "setting": "Mus musculus", "result": 20, "unit": "mg/kg"}, {"measurement": "C50", "setting": "[5]", "result": 0.22, "unit": "µM"}, {"measurement": "C50", "setting": "Bos taurus", "result": 1.24, "unit": "µM"}]}, {"smiles": "COc1cccc2c(Nc3ccc(C(=O)Nc4ccc(Nc5cc[n+](C)cc5)cc4)cc3)cc[n+](C)c12.[Br-].[Br-]", "values": [{"measurement": "C50", "setting": "[1]", "result": 1.62, "unit": "µM"}, {"measurement": "Rm", "setting": "[2]", "result": 0.3}, {"measurement": "log(ILSmax)", "setting": "L1210 [3]", "result": 2.14}, {"measurement": "D40", "setting": "L1210 [4]", "result": 0.3, "unit": "mg/kg"}, {"measurement": "LD10", "setting": "Mus musculus", "result": 6, "unit": "mg/kg"}, {"measurement": "C50", "setting": "[5]", "result": 0.16, "unit": "µM"}, {"measurement": "C50", "setting": "Bos taurus", "result": 0.76, "unit": "µM"}]}, {"smiles": "Cc1cc(Nc2ccc(NC(=O)c3ccc(C(=O)Nc4ccc(C(=O)Nc5ccc[n+](C)c5)cc4)cc3)cc2)nc(N)n1.I.[I-]", "values": [{"measurement": "C50", "setting": "[1]", "result": 0.49, "unit": "µM"}, {"measurement": "Rm", "setting": "[2]", "result": -0.3}, {"measurement": "log(ILSmax)", "setting": "L1210 [3]", "result": 2}, {"measurement": "D40", "setting": "L1210 [4]", "result": 10, "unit": "mg/kg"}, {"measurement": "LD10", "setting": "Mus musculus", "result": 19, "unit": "mg/kg"}, {"measurement": "C50", "setting": "[5]", "result": 0.27, "unit": "µM"}, {"measurement": "C50", "setting": "Bos taurus", "result": 0.39, "unit": "µM"}]}, {"smiles": "COc1cc(NC(=O)c2ccc(Nc3cc[n+](C)cc3)cc2)ccc1Nc1cc[n+](C)c2cc(N)ccc12.[Br-].[Br-]", "values": [{"measurement": "C50", "setting": "[1]", "result": 1.18, "unit": "µM"}, {"measurement": "Rm", "setting": "[2]", "result": 0.14}, {"measurement": "log(ILSmax)", "setting": "L1210 [3]", "result": 2.23}, {"measurement": "D40", "setting": "L1210 [4]", "result": 3, "unit": "mg/kg"}, {"measurement": "LD10", "setting": "Mus musculus", "result": 14, "unit": "mg/kg"}, {"measurement": "C50", "setting": "[5]", "result": 0.15, "unit": "µM"}, {"measurement": "C50", "setting": "Bos taurus", "result": 0.69, "unit": "µM"}]}, {"smiles": "C[n+]1ccc(Nc2ccc(C(=O)Nc3ccc(Nc4cc[n+](C)c5ccc(N)cc45)c(N)c3)cc2)cc1.Cc1ccc(S(=O)(=O)[O-])cc1.Cc1ccc(S(=O)(=O)[O-])cc1", "values": [{"measurement": "C50", "setting": "[1]", "result": 2.68, "unit": "µM"}, {"measurement": "Rm", "setting": "[2]", "result": -0.15}, {"measurement": "log(ILSmax)", "setting": "L1210 [3]", "result": 2.03}, {"measurement": "D40", "setting": "L1210 [4]", "result": 1.1, "unit": "mg/kg"}, {"measurement": "LD10", "setting": "Mus musculus", "result": 9, "unit": "mg/kg"}, {"measurement": "C50", "setting": "[5]", "result": 0.25, "unit": "µM"}, {"measurement": "C50", "setting": "Bos taurus", "result": 1.58, "unit": "µM"}]}, {"smiles": "C[n+]1ccc(Nc2ccc(NC(=O)Nc3ccc(Nc4cc[n+](C)c5ccc(N)cc45)cc3)cc2)cc1.Cc1ccc(S(=O)(=O)[O-])cc1.Cc1ccc(S(=O)(=O)[O-])cc1", "values": [{"measurement": "C50", "setting": "[1]", "result": 1.2, "unit": "µM"}, {"measurement": "Rm", "setting": "[2]", "result": 0.17}, {"measurement": "log(ILSmax)", "setting": "L1210 [3]", "result": 1.74}, {"measurement": "D40", "setting": "L1210 [4]", "result": 3, "unit": "mg/kg"}, {"measurement": "LD10", "setting": "Mus musculus", "result": 6, "unit": "mg/kg"}, {"measurement": "C50", "setting": "[5]", "result": 0.28, "unit": "µM"}, {"measurement": "C50", "setting": "Bos taurus", "result": 0.51, "unit": "µM"}]}, {"smiles": "C[n+]1c2ccccc2c(Nc2ccc(NC(=O)Nc3ccc(NC(=N)NC(=N)N)cc3)cc2)c2ccc(N)cc21.Cl.[Cl-]", "values": [{"measurement": "C50", "setting": "[1]", "result": 0.13, "unit": "µM"}, {"measurement": "Rm", "setting": "[2]", "result": 0.46}, {"measurement": "log(ILSmax)", "setting": "L1210 [3]", "result": 2.48}, {"measurement": "D40", "setting": "L1210 [4]", "result": 8, "unit": "mg/kg"}, {"measurement": "LD10", "setting": "Mus musculus", "result": 200, "unit": "mg/kg"}, {"measurement": "C50", "setting": "[5]", "result": 0.06, "unit": "µM"}, {"measurement": "C50", "setting": "Bos taurus", "result": 0.09, "unit": "µM"}]}, {"smiles": "CCC[n+]1cccc(NC(=O)c2ccc(NC(=O)c3ccc(C(=O)Nc4ccc(C(=O)Nc5ccc[n+](CCC)c5)c(N)c4)c(N)c3)cc2N)c1.Cc1ccc(S(=O)(=O)[O-])cc1.Cc1ccc(S(=O)(=O)[O-])cc1", "values": [{"measurement": "C50", "setting": "[1]", "result": 0.48, "unit": "µM"}, {"measurement": "Rm", "setting": "[2]", "result": -0.51}, {"measurement": "log(ILSmax)", "setting": "L1210 [3]", "result": 2.1}, {"measurement": "D40", "setting": "L1210 [4]", "result": 2.2, "unit": "mg/kg"}, {"measurement": "LD10", "setting": "Mus musculus", "result": 10, "unit": "mg/kg"}, {"measurement": "C50", "setting": "[5]", "result": 0.08, "unit": "µM"}, {"measurement": "C50", "setting": "Bos taurus", "result": 0.26, "unit": "µM"}]}, {"smiles": "CC[n+]1ccc(Nc2ccc(NC(=O)c3ccc(Nc4cc[n+](CC)c5ccc(N)cc45)cc3)cc2)cc1.[Br-].[Br-]", "values": [{"measurement": "C50", "setting": "[1]", "result": 1.04, "unit": "µM"}, {"measurement": "Rm", "setting": "[2]", "result": 0.22}, {"measurement": "log(ILSmax)", "setting": "L1210 [3]", "result": 2.25}, {"measurement": "D40", "setting": "L1210 [4]", "result": 0.9, "unit": "mg/kg"}, {"measurement": "LD10", "setting": "Mus musculus", "result": 10, "unit": "mg/kg"}, {"measurement": "C50", "setting": "[5]", "result": 0.1, "unit": "µM"}, {"measurement": "C50", "setting": "Bos taurus", "result": 0.69, "unit": "µM"}]}, {"smiles": "Cc1ccc(S(=O)(=O)[O-])cc1.Cc1ccc(S(=O)(=O)[O-])cc1.Cc1cccc2c(Nc3ccc(C(=O)Nc4ccc(Nc5cc[n+](C)cc5)cc4)cc3)cc[n+](C)c12", "values": [{"measurement": "C50", "setting": "[1]", "result": 2.01, "unit": "µM"}, {"measurement": "Rm", "setting": "[2]", "result": 0.51}, {"measurement": "log(ILSmax)", "setting": "L1210 [3]", "result": 2.02}, {"measurement": "D40", "setting": "L1210 [4]", "result": 12, "unit": "mg/kg"}, {"measurement": "LD10", "setting": "Mus musculus", "result": 60, "unit": "mg/kg"}, {"measurement": "C50", "setting": "[5]", "result": 0.31, "unit": "µM"}, {"measurement": "C50", "setting": "Bos taurus", "result": 0.87, "unit": "µM"}]}, {"smiles": "C[n+]1cccc(NC(=O)c2ccc(NC(=O)c3ccc(C(=O)Nc4ccc(C(=O)Nc5ccc[n+](C)c5)cc4)c(N)c3)cc2)c1.Cc1ccc(S(=O)(=O)[O-])cc1.Cc1ccc(S(=O)(=O)[O-])cc1", "values": [{"measurement": "C50", "setting": "[1]", "result": 0.93, "unit": "µM"}, {"measurement": "Rm", "setting": "[2]", "result": -0.63}, {"measurement": "log(ILSmax)", "setting": "L1210 [3]", "result": 2.17}, {"measurement": "D40", "setting": "L1210 [4]", "result": 3.9, "unit": "mg/kg"}, {"measurement": "LD10", "setting": "Mus musculus", "result": 20, "unit": "mg/kg"}, {"measurement": "C50", "setting": "[5]", "result": 0.37, "unit": "µM"}, {"measurement": "C50", "setting": "Bos taurus", "result": 0.53, "unit": "µM"}]}]}
